Source: PubChem BioAssay (NCI)
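GI50 = concentration required for 50% inhibition of growth. TGI denotes the concentration required for complete inhibition of growth.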

Legend:
Assay in all cases: NCI tumour cell line growth inhibition, 384-well format
[1] = test system: NCI-H226 lung
[2] = test system: NCI-H23 lung
[3] = test system: NCI-H322M lung
[4] = test system: NCI-H460 NSCLC
[5] = test system: NCI-H522 lung
[6] = test system: NCI/ADR-RES ovarian
[7] = test system: OVCAR-3 ovarian
[8] = test system: OVCAR-4 ovarian
[9] = test system: OVCAR-5 ovarian
[10] = test system: OVCAR-8 ovarian
[11] = test system: PC-3 prostate
[12] = test system: RPMI-8226 leukemia
[13] = test system: RXF 393 renal
[14] = test system: SF-268 CNS
[15] = test system: SF-295 CNS
[16] = test system: SF-539 CNS
[17] = test system: SK-MEL-2 melanoma
[18] = test system: SK-MEL-28 melanoma
[19] = test system: SK-MEL-5 melanoma
[20] = test system: SK-OV-3 ovarian
[21] = test system: SN12C renal
[22] = test system: SNB-19 CNS
[23] = test system: SNB-75 CNS
[24] = test system: SW-620 colon
[25] = test system: T-47D breast
[26] = test system: TK-10 renal
[27] = test system: U251 glioblastoma
[28] = test system: UACC-257 melanoma
[29] = test system: UACC-62 melanoma
[30] = test system: UO-31 renal

## CNC(=O)c1ccccc1Nc1nc(Nc2ccc(N3CCOCC3)cc2OC)ncc1Cl
[1]
  TGI: 5.35 µM
[2]
  GI50: 0.431 µM
  TGI: 2.63 µM
[3]
  GI50: 1.32 µM
  TGI: 3.98 µM
[4]
  GI50: 0.267 µM
  TGI: 1.16 µM
[5]
  GI50: 0.407 µM
  TGI: 1.72 µM
[6]
  GI50: 0.499 µM
  TGI: 2.72 µM
[7]
  GI50: 0.716 µM
  TGI: 6.28 µM
[8]
  GI50: 0.547 µM
  TGI: 18.7 µM
[9]
  GI50: 0.597 µM
  TGI: 5.66 µM
[10]
  GI50: 0.846 µM
  TGI: 5.78 µM
[11]
  GI50: 1.87 µM
  TGI: 13.5 µM
[12]
  GI50: 0.236 µM
  TGI: 0.826 µM
[13]
  GI50: 0.467 µM
  TGI: 2.31 µM
[14]
  GI50: 1.62 µM
  TGI: 14.3 µM
[15]
  GI50: 0.511 µM
  TGI: 7.44 µM
[16]
  GI50: 1.39 µM
  TGI: 7.13 µM
[17]
  GI50: 0.333 µM
  TGI: 1.67 µM
[18]
  GI50: 1.34 µM
  TGI: 13.4 µM
[19]
  GI50: 0.766 µM
  TGI: 10.7 µM
[20]
  GI50: 0.741 µM
  TGI: 4.8 µM
[21]
  GI50: 1.38 µM
  TGI: 6.86 µM
[22]
  GI50: 2.69 µM
  TGI: 19.6 µM
[23]
  GI50: 1.16 µM
  TGI: 4.18 µM
[24]
  GI50: 0.4 µM
  TGI: 2.44 µM
[25]
  GI50: 1.71 µM
  TGI: 8.71 µM
[26]
  GI50: 0.45 µM
  TGI: 2.19 µM
[27]
  GI50: 2.35 µM
  TGI: 13.2 µM
[28]
  GI50: 2.62 µM
  TGI: 22.2 µM
[29]
  GI50: 0.487 µM
  TGI: 2.91 µM
[30]
  GI50: 0.718 µM
  TGI: 5.32 µM
